Experimental data reported in ChEMBL document CHEMBL1201862, “PubChem BioAssay data set” (2004).
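Five compound concentrations were applied to cells in 96-well plates for 48 hours; endpoints were derived by simple linear interpolation of the resulting dose-response curve. GI50 = concentration required for 50% inhibition of growth.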 Active and inactive are the calls of the source. Cut-off read from the data, not from the text of the source: active = GI50 up to about 1.1 µM and inactive = higher.

What was measured:
Test in all cases: NCI anticancer screen, dose series, 48 h
UACC-62 = test system: UACC-62
A549 = test system: A549
786-0 = test system: 786-0
SF-539 = test system: SF-539
SK-MEL-2 = test system: SK-MEL-2
UO-31 = test system: UO-31
K562 = test system: K562
SN12C = test system: SN12C
RXF 393 = test system: RXF 393
LXFL 529 = test system: LXFL 529
SNB-75 = test system: SNB-75
SK-OV-3 = test system: SK-OV-3
HOP-92 = test system: HOP-92
COLO 205 = test system: COLO 205
CAKI-1 = test system: CAKI-1
SW-620 = test system: SW-620
HOP-62 = test system: HOP-62
MDA-N = test system: MDA-N
SR = test system: SR
BT-549 = test system: BT-549

Measured: GI50

O=C(NN1C(=O)C(Cl)C1c1ccc(O)cc1)c1ccccc1O (centres undefined)
inactive: UACC-62 17.2 µM | A549 22.4 µM | 786-0 18.7 µM | SF-539 23.4 µM | SK-MEL-2 19.9 µM | UO-31 15.6 µM | K562 22.4 µM | SN12C 23 µM | RXF 393 13.1 µM | LXFL 529 17.9 µM | SNB-75 34.8 µM | SK-OV-3 25.8 µM

Cc1cc(C)[n+]2c(c1)C=CC2.[O-][Cl+3]([O-])([O-])[O-]
inactive: A549 18.1 µM | HOP-92 8.57 µM | 786-0 37.2 µM | SF-539 22.8 µM | SK-MEL-2 11 µM | UO-31 39.4 µM | COLO 205 15 µM | CAKI-1 15.6 µM | SN12C 31.2 µM | RXF 393 2.89 µM | LXFL 529 16.5 µM | SW-620 4.18 µM | SNB-75 6.05 µM | HOP-62 57.1 µM

COC(=O)C1C(OS(=O)(=O)O)CCC2CN3CCc4c([nH]c5ccccc45)C3CC21 (centres undefined)
inactive: UACC-62 > 100 µM | A549 > 100 µM | HOP-92 > 100 µM | 786-0 > 100 µM | SF-539 > 100 µM | SK-MEL-2 > 100 µM | UO-31 > 100 µM | COLO 205 > 100 µM | CAKI-1 > 100 µM | K562 > 100 µM | MDA-N > 100 µM | SN12C > 100 µM | SR > 100 µM | BT-549 > 100 µM | RXF 393 > 100 µM | SW-620 > 100 µM | SNB-75 > 100 µM | HOP-62 > 100 µM | SK-OV-3 > 100 µM

CC(=O)NCc1c(C(N)=O)ncn1Cc1ccccc1
inactive: UACC-62 > 100 µM | A549 > 100 µM | HOP-92 > 100 µM | 786-0 > 100 µM | SF-539 > 100 µM | COLO 205 > 100 µM | CAKI-1 > 100 µM | K562 > 100 µM | SN12C > 100 µM | RXF 393 > 100 µM | LXFL 529 > 100 µM | SW-620 > 100 µM | SNB-75 > 100 µM | HOP-62 > 100 µM | SK-OV-3 > 100 µM

COc1ccc2cc1Oc1ccc(cc1)CC1c3cc4c(cc3CCN1C)Oc1c(OC)cc3c(c1O4)C(C2)N(C)CC3 (centres undefined)
inactive: UACC-62 3.21 µM | A549 4.71 µM | 786-0 7.66 µM | SF-539 2.13 µM | SK-MEL-2 2.8 µM | COLO 205 1.43 µM | K562 1.75 µM | SN12C 1.94 µM | SR 1.53 µM | RXF 393 1.64 µM | LXFL 529 2 µM | SW-620 1.69 µM | SNB-75 2.56 µM | HOP-62 12.6 µM

O=C(OCc1nc2ccc(Br)cc2c(=O)n1-c1ccccc1)c1ccccc1O
inactive: UACC-62 > 100 µM | A549 86.5 µM | HOP-92 > 100 µM | 786-0 74.8 µM | SF-539 > 100 µM | SK-MEL-2 90.4 µM | UO-31 29.8 µM | COLO 205 > 100 µM | CAKI-1 39.8 µM | K562 54.7 µM | SN12C > 100 µM | RXF 393 > 100 µM | LXFL 529 35.4 µM | SW-620 > 100 µM | SNB-75 28.4 µM | HOP-62 > 100 µM | SK-OV-3 > 100 µM

O=c1c2nc(-c3ccccc3)oc2n(-c2ccccc2)c(=O)n1-c1ccccc1
inactive: UACC-62 31.1 µM | A549 37.6 µM | HOP-92 14.4 µM | 786-0 17.5 µM | SF-539 20.2 µM | SK-MEL-2 > 46.5 µM | UO-31 22 µM | COLO 205 > 46.5 µM | CAKI-1 8.18 µM | K562 > 46.5 µM | MDA-N > 46.5 µM | SN12C 36.2 µM | SR > 31.6 µM | BT-549 28.4 µM | RXF 393 18.1 µM | SW-620 > 46.5 µM | SNB-75 18.1 µM | HOP-62 17.5 µM | SK-OV-3 21.5 µM

CCC(N)(C(=O)O)C(C)C (centres undefined)
inactive: UACC-62 > 100 µM | A549 > 100 µM | HOP-92 34.8 µM | 786-0 > 100 µM | SF-539 > 100 µM | SK-MEL-2 > 100 µM | UO-31 > 100 µM | COLO 205 > 100 µM | CAKI-1 > 100 µM | K562 > 100 µM | MDA-N > 100 µM | SN12C > 100 µM | SR > 100 µM | BT-549 > 100 µM | RXF 393 > 100 µM | SW-620 > 100 µM | SNB-75 > 100 µM | HOP-62 > 100 µM | SK-OV-3 > 100 µM

[Se]=P(c1ccccc1)(c1ccccc1)c1ccc(C(c2ccccc2)=P(c2ccccc2)(c2ccccc2)c2ccccc2)cc1
active: UACC-62 1.02 µM | HOP-92 0.357 µM | SK-MEL-2 0.957 µM | COLO 205 0.308 µM | K562 0.182 µM | MDA-N 0.753 µM | SR 0.415 µM | BT-549 0.929 µM | SNB-75 0.431 µM
inactive: A549 1.44 µM | 786-0 1.2 µM | SF-539 1.46 µM | UO-31 3.27 µM | CAKI-1 2.3 µM | SN12C 1.23 µM | RXF 393 1.57 µM | SW-620 1.19 µM | HOP-62 1.13 µM | SK-OV-3 2.05 µM

COc1ccc(C(c2c(O)c3ccccc3n(-c3ccccc3)c2=O)c2c(O)c3ccccc3n(-c3ccccc3)c2=O)cc1
inactive: A549 > 100 µM | HOP-92 49.2 µM | 786-0 25.4 µM | SF-539 > 100 µM | SK-MEL-2 > 100 µM | UO-31 > 100 µM | COLO 205 > 100 µM | CAKI-1 > 100 µM | K562 > 100 µM | SN12C > 100 µM | SR 72.4 µM | RXF 393 > 100 µM | LXFL 529 > 100 µM | SW-620 > 100 µM | HOP-62 > 100 µM

O=C1c2ccccc2C(=O)N1C/C=N/NS(=O)(=O)c1ccc2ccccc2c1
inactive: UACC-62 > 100 µM | A549 > 100 µM | 786-0 > 100 µM | SF-539 > 100 µM | SK-MEL-2 > 100 µM | UO-31 > 100 µM | COLO 205 > 100 µM | CAKI-1 > 100 µM | K562 > 100 µM | SN12C > 100 µM | SR > 100 µM | LXFL 529 > 100 µM | SW-620 > 100 µM | SNB-75 > 100 µM | HOP-62 > 100 µM | SK-OV-3 > 100 µM

Cn1c(=O)n(CC(Br)CBr)c(=O)n(CC(Br)CBr)c1=O (centres undefined)
inactive: UACC-62 23.3 µM | A549 40.3 µM | HOP-92 > 100 µM | 786-0 38.1 µM | SF-539 25.3 µM | SK-MEL-2 46.1 µM | UO-31 25.5 µM | COLO 205 21 µM | CAKI-1 85.3 µM | K562 32.5 µM | MDA-N 28.8 µM | SN12C 26 µM | SR 18.4 µM | BT-549 67.9 µM | RXF 393 32.8 µM | SW-620 30.9 µM | SNB-75 58.5 µM | HOP-62 > 100 µM | SK-OV-3 > 100 µM

O=c1c2ccccc2oc2nccnc12
inactive: UACC-62 > 100 µM | A549 > 100 µM | 786-0 > 100 µM | SF-539 > 100 µM | SK-MEL-2 > 100 µM | UO-31 > 100 µM | COLO 205 > 100 µM | CAKI-1 > 100 µM | K562 > 100 µM | SN12C > 100 µM | RXF 393 > 100 µM | LXFL 529 > 100 µM | SW-620 > 100 µM | SNB-75 > 100 µM | HOP-62 > 100 µM | SK-OV-3 > 100 µM

C#C[C@@]1(O)CCCC2=CC(=O)C[C@]21C
inactive: A549 > 100 µM | HOP-92 > 100 µM | 786-0 > 100 µM | SF-539 > 100 µM | SK-MEL-2 > 100 µM | UO-31 > 100 µM | COLO 205 > 100 µM | K562 > 100 µM | SN12C > 100 µM | SR > 100 µM | RXF 393 > 100 µM | LXFL 529 > 100 µM | SW-620 > 100 µM | SK-OV-3 > 100 µM

CN(C)CCCC12CCCCC1=Nc1ccccc12 (centres undefined)
inactive: UACC-62 > 100 µM | A549 > 100 µM | HOP-92 > 100 µM | 786-0 > 100 µM | SF-539 > 100 µM | SK-MEL-2 > 100 µM | UO-31 > 100 µM | COLO 205 48.2 µM | CAKI-1 > 100 µM | K562 74 µM | MDA-N > 100 µM | SN12C > 100 µM | SR 22.5 µM | BT-549 > 100 µM | RXF 393 > 100 µM | SW-620 > 100 µM | SNB-75 > 100 µM | HOP-62 > 100 µM | SK-OV-3 > 100 µM

COC(=O)C[S+]([O-])c1ccccc1 (centres undefined)
inactive: UACC-62 29.2 µM | A549 26.8 µM | HOP-92 17.6 µM | 786-0 26.7 µM | SF-539 20.9 µM | SK-MEL-2 35.6 µM | UO-31 4.63 µM | COLO 205 34.3 µM | CAKI-1 58.1 µM | K562 35.9 µM | SN12C 17.6 µM | RXF 393 16.4 µM | LXFL 529 31.8 µM | SW-620 38.3 µM | SNB-75 > 10 µM | HOP-62 32.6 µM | SK-OV-3 60.7 µM
